Test results: article PMC3700763, “First human dose-escalation study with remogliflozin etabonate, a selective inhibitor of the sodium-glucose transporter 2 (SGLT2), in healthy subjects and in subjects with type 2 diabetes mellitus” (BMC Pharmacology & Toxicology, 2013)
Where two headings read alike, the source gives them in different places. Marks after values point to notes of the source that are not given here.

What was measured:
[1] = Plasma pharmacokinetics, healthy subjects; format: in vivo, human; conditions: human; for Cmax: read-out: Cmax; for AUC(0-inf): read-out: AUC(0–∞)
Experimental: Ten healthy subjects were evaluated in 5 study sessions, each separated by approximately 2 weeks. At each study session, subjects received either an oral dose of remogliflozin etabonate or placebo after an overnight fast. Remogliflozin etabonate doses were 20 mg, 50 mg, 150 mg, 500 mg and 1000 mg. Over the course of participation in the study, each subject received 4 of the 5 active remogliflozin etabonate doses and 1 dose of placebo (4:1 active to placebo ratio per treatment period). The available safety and PK results from each dosing period were evaluated before proceeding to the next dose level. On each dosing day, a series of 2.0 mL blood samples were collected at pre-dose and 10, 20, 30 and 45 min, and 1, 1.25, 1.5, 2, 2.5, 3, 4, 6, 8, 12, 16, and 24 h post-dose for the determination of remogliflozin etabonate, remogliflozin and GSK279782 in plasma by using high-performance liquid chromatography with tandem mass spectrometry (MS/MS) as described. Non-compartmental PK analysis of plasma concentration–time data was performed using WinNonlin Version 4.1 (Pharsight Corporation, Mountainview, CA, USA). The Cmax and Tmax were obtained directly from the data. Areas under the plasma concentration–time curves from time zero to the last quantifiable time point (AUC[0–last]) and extrapolated to infinity (AUC[0–∞]) were calculated using the log-linear trapezoidal method. The terminal plasma elimination rate-constant (λz) was estimated from log-linear regression analysis of the terminal phase of the plasma concentration–time curve, and the T½ was calculated as T½ = ln2/λz. Ratios of AUC(0–∞) remogliflozin to AUC(0–last) remogliflozin etabonate were calculated including molecular weight corrections. Safety and pharmacodynamic data were summarized using descriptive statistics. This was a small exploratory study and no formal hypothesis-testing was conducted. Dose proportionality with respect to Cmax, and AUC was assessed using the power model y = α dose^β, where y = Cmax or AUC, and α denotes a random subject effect. The exponent β in the power model will be estimated by regressing the loge-transformed PK parameters on loge dose, i.e. ln(PK parameter) = ln(α) + β * ln(dose). Dose proportionality implied that β = 1 and was assessed by estimating β and its corresponding 90% confidence interval. The power model was fitted by restricted maximum likelihood using SAS Proc Mixed.

[2] = biological target: T1, SGLT2 (Homo sapiens, UniProt P31639); test: 24-h urine glucose excretion, healthy subjects; format: in vivo; conditions: for Filtered glucose excreted in urine / Urinary glucose excretion: 24-h, healthy subjects, mean (SD)
T1 construct: from tissue; host or cells: kidney (proximal tubule) of living human subjects: healthy volunteers and T2DM patients
T1 sequence (P31639 1-672): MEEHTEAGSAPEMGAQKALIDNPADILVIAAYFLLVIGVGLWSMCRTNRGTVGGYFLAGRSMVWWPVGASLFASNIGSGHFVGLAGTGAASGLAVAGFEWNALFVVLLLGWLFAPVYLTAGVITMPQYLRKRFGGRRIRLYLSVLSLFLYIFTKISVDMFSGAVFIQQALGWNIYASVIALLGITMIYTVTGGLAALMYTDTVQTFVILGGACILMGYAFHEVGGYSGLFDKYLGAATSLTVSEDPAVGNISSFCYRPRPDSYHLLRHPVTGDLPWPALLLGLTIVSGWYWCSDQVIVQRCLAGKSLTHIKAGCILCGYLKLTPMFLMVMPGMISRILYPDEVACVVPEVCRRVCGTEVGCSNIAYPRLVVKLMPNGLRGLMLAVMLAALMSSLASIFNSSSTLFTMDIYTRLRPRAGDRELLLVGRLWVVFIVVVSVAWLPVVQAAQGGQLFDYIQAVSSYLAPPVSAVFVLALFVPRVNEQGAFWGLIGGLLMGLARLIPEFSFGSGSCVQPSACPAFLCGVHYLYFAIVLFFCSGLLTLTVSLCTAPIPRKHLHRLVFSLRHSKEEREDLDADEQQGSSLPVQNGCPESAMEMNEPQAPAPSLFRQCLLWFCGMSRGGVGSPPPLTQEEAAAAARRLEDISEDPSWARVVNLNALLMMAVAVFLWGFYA
Experimental: (§1) Urine samples were collected at pre-dose, and over a series of intervals (0–2, 2–4, 4–6, 6–8, 8–12 and 12–24 h post-dose) for the analysis of creatinine, glucose and electrolytes (Na, K and Cl). All fluid intake was recorded, as well as urine volume, over the 24 hours before and after dosing in each treatment period. Urine was tested for protein on the first morning void of day -1 and 24 h after dosing.
The percentage of filtered glucose excreted in the urine for each individual time period was calculated as the amount of glucose excreted during that time period divided by (CLCR × PG × time interval length), where CLCR is the creatinine clearance for the time interval, PG is the plasma glucose concentration closest to the midpoint of the time interval, and the time interval is the period (min) of urine collection (CLCR × PG represents the glucose filtered load). For the 24-h period, the percentage of filtered glucose excreted was calculated as the amount of glucose excreted over 24 h divided by the sum over the individual time intervals of (CLCR × PG × time interval length).

[3] = Fluid balance, healthy subjects; format: in vivo, human; conditions: mean (SD)
Experimental: as §1

[4] = plasma prodrug, healthy subjects, 50 mg oral dose, geometric mean (CV%)
[5] = plasma prodrug, healthy subjects, 150 mg oral dose, geometric mean (CV%)
[6] = plasma prodrug, healthy subjects, 500 mg oral dose, geometric mean (CV%)
[7] = plasma prodrug, healthy subjects, 1000 mg oral dose, geometric mean (CV%)

CCOC(=O)OC[C@H]1O[C@@H](Oc2nn(C(C)C)c(C)c2Cc2ccc(OC(C)C)cc2)[C@H](O)[C@@H](O)[C@@H]1O [Remogliflozin etabonate, remogliflozin etabonate]
half-life ([1]; plasma, oral, both populations, independent of dose (abstract), read-out: mean plasma T½): ~25 min | Tmax ([1]; plasma, oral, healthy subjects, 20-1000 mg, read-out: median Tmax estimates, range across doses): 31.2 to 75 min | half-life ([1]; plasma, oral, healthy subjects, 20-1000 mg, read-out: median T½ estimates, range across doses): 15.6 to 42.6 min | half-life ([1]; plasma, po, 50 mg, plasma prodrug, healthy subjects, 50 mg oral dose, geometric mean (CV%), n = 6, read-out: T½ (converted)): 21.2 min | half-life ([1]; plasma, po, 150 mg, plasma prodrug, healthy subjects, 150 mg oral dose, geometric mean (CV%), n = 6, read-out: T½ (converted)): 15.4 min | half-life ([1]; plasma, po, 500 mg, plasma prodrug, healthy subjects, 500 mg oral dose, geometric mean (CV% 27), n = 4, read-out: T½ (converted)): 15.8 min | half-life ([1]; plasma, po, 1000 mg, plasma prodrug, healthy subjects, 1000 mg oral dose, geometric mean (CV% 56), n = 7, read-out: T½ (converted)): 42.4 min | AUC(0-t) ([1]; plasma prodrug, healthy subjects, 20 mg oral dose, geometric mean (CV%), n = 5): 1.61 ng·h/mL | Cmax ([1]; plasma prodrug, healthy subjects, 20 mg oral dose, geometric mean (CV%)): 1.89 ng/mL | Tmax ([1]; plasma prodrug, healthy subjects, 20 mg oral dose, median, read-out: Tmax): 37.5 min | AUC(0-t) [1, 4]: 3.56 ng·h/mL | AUC(0-inf) ([1]; plasma prodrug, healthy subjects, 50 mg oral dose, geometric mean (CV%), n = 6): 3.7 ng·h/mL | Cmax [1, 4]: 4.98 ng/mL | Tmax ([1]; plasma prodrug, healthy subjects, 50 mg oral dose, median, read-out: Tmax): 37.5 min | AUC(0-t) [1, 5]: 9.51 ng·h/mL | AUC(0-inf) ([1]; plasma prodrug, healthy subjects, 150 mg oral dose, geometric mean (CV%), n = 6): 9.77 ng·h/mL | Cmax [1, 5]: 17.6 ng/mL | Tmax ([1]; plasma prodrug, healthy subjects, 150 mg oral dose, median, read-out: Tmax): 30.9 min | AUC(0-t) [1, 6]: 35.4 ng·h/mL | AUC(0-inf) ([1]; plasma prodrug, healthy subjects, 500 mg oral dose, geometric mean (CV%), n = 4): 36.8 ng·h/mL | Cmax [1, 6]: 41.6 ng/mL | Tmax ([1]; plasma prodrug, healthy subjects, 500 mg oral dose, median, read-out: Tmax): 75 min | AUC(0-t) [1, 7]: 107 ng·h/mL | AUC(0-inf) ([1]; plasma prodrug, healthy subjects, 1000 mg oral dose, geometric mean (CV%), n = 7): 126 ng·h/mL | Cmax [1, 7]: 144 ng/mL | Tmax ([1]; plasma prodrug, healthy subjects, 1000 mg oral dose, median, read-out: Tmax): 37.5 min | Filtered glucose excreted in urine ([2]; 20 mg single dose): 9.0 (2.2) % | Urinary glucose excretion ([2]; 20 mg single dose): 67.1 (17.9) mmol | Filtered glucose excreted in urine ([2]; 50 mg single dose, n = 7): 12.7 (3.7)^b % | Urinary glucose excretion ([2]; 50 mg single dose, n = 7): 96.7 (17.1)^b mmol | Filtered glucose excreted in urine ([2]; 150 mg single dose, n = 7): 25.5 (7.8)^b % | Urinary glucose excretion ([2]; 150 mg single dose, n = 7): 168 (49.4)^b mmol | Filtered glucose excreted in urine ([2]; 500 mg single dose): 34.2 (5.0) % | Urinary glucose excretion ([2]; 500 mg single dose): 223 (49.5) mmol | Filtered glucose excreted in urine ([2]; 1000 mg single dose): 26.4 (11.7) % | Urinary glucose excretion ([2]; 1000 mg single dose): 304 (137) mmol | Total amount of glucose excreted in urine from 0–24 h, dose dependence ([2]; both populations, less than proportional to dose): increased in a dose-dependent manner | Fluid balance (total fluid intake minus total urine volume) ([3]; 0–12 h post-dose, 20 mg): 243 (1161) mL | Fluid balance (total fluid intake minus total urine volume) ([3]; 0–12 h post-dose, 50 mg): -570 (582) mL | Fluid balance (total fluid intake minus total urine volume) ([3]; 0–12 h post-dose, 150 mg): -86 (909) mL | Fluid balance (total fluid intake minus total urine volume) ([3]; 0–12 h post-dose, 500 mg): -159 (531) mL | Fluid balance (total fluid intake minus total urine volume) ([3]; 0–12 h post-dose, 1000 mg): -273 (331) mL | Fluid balance (total fluid intake minus total urine volume) ([3]; 12–24 h post-dose, 20 mg): -581 (387) mL | Fluid balance (total fluid intake minus total urine volume) ([3]; 12–24 h post-dose, 50 mg): -551 (530) mL | Fluid balance (total fluid intake minus total urine volume) ([3]; 12–24 h post-dose, 150 mg): -564 (478) mL | Fluid balance (total fluid intake minus total urine volume) ([3]; 12–24 h post-dose, 500 mg): -424 (334) mL | Fluid balance (total fluid intake minus total urine volume) ([3]; 12–24 h post-dose, 1000 mg): -495(367) mL | Fluid balance (total fluid intake minus total urine volume) ([3]; -24 h to pre-dose (baseline before dosing), 20 mg period): -460 (1311) mL | Fluid balance (total fluid intake minus total urine volume) ([3]; -24 h to pre-dose (baseline before dosing), 50 mg period): -338 (525) mL | Fluid balance (total fluid intake minus total urine volume) ([3]; -24 h to pre-dose (baseline before dosing), 150 mg period): -512 (731) mL | Fluid balance (total fluid intake minus total urine volume) ([3]; -24 h to pre-dose (baseline before dosing), 500 mg period): -278 (1250) mL | Fluid balance (total fluid intake minus total urine volume) ([3]; -24 h to pre-dose (baseline before dosing), 1000 mg period): -126 (798) mL
